Experimental data from ChEMBL document CHEMBL1201862, “PubChem BioAssay data set” (2004).
Activity calls are given as the source filed them.

Assays:
Mu-type opioid receptor [1] = molecular target: T1, Mu-type opioid receptor (Homo sapiens, UniProt P35372); assay: mu opioid receptor activators, image-based, SAR follow-up (AID 2352); format: functional
[2] = molecular target: T2, Delta-type opioid receptor (Homo sapiens, UniProt P41143); assay: delta opioid receptor blockers – image-based, SAR follow-up (AID 2357); format: functional
[3] = molecular target: T3, Kappa-type opioid receptor (Homo sapiens, UniProt P41145); assay: SAR analysis of small molecule agonists of the kappa opioid receptor via a luminescent beta-arrestin assay. [Related pubchem assays (depositor defined):AID1777, AID1786, AID1966, AID2133, AID2136, AID2348, AID2352, AID2357, AID2359, AID2370, AID2420, AID2478, AID2491, AID2492, AID2493, AID2497, AID2498, AID2500, AID449737, AID488822, AID488842]; format: functional
Mu-type opioid receptor [4] = molecular target: T1, Mu-type opioid receptor; assay: mu opioid receptor blockers – image-based, SAR follow-up (AID 2420); format: functional;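 note: compounds added before stimulation of receptor with agonist DAMGO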
[5] = molecular target: T3, Kappa-type opioid receptor; assay: kappa opioid receptor blockers, image-based, SAR follow-up (AID 2348); format: functional
[6] = molecular target: T3, Kappa-type opioid receptor; assay: kappa opioid receptor activation potency – imaging, image-based, SAR follow-up (AID 2359); format: functional
[7] = molecular target: T4, Neuropeptides B/W receptor type 1 (Homo sapiens, UniProt P48145); assay: Fluorescence-based dose response cell-based high throughput screening assay to identify antagonists of the G-protein coupled receptor 7 (GPR7). [Related pubchem assays: 1952 (Screening assay (GPR7 antagonists).), 1880 (Summary AID.)]; format: functional
T4 sequence (P48145 whole entry): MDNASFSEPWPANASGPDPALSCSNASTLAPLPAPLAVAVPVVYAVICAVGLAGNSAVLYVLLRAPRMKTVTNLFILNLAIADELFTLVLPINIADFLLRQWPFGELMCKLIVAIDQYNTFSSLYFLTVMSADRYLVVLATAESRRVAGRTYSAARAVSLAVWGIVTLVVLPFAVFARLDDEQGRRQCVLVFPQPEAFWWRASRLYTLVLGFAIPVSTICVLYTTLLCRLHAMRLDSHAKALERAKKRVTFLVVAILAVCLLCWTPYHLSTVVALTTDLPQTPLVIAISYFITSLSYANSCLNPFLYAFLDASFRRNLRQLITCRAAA

[8] = molecular target: Melanin-concentrating hormone receptor 1 (Homo sapiens, UniProt Q99705); assay: Fluorescence-based counterscreen for antagonists of the G-protein coupled receptor 7 (GPR7): cell-based high throughput dose response assay to identify antagonists of the melanin-concentrating hormone receptor 1 (MCHR1).; format: functional
[9] = molecular target: T2, Delta-type opioid receptor; assay: DOR agonists, SAR follow-up, image-based (AID 2370); format: functional
[10] = molecular target: T2, Delta-type opioid receptor; assay: HTS Image-Based Screen for Agonists of the DOR Receptor. [Related pubchem assays (depositor defined):AID1777, AID1786, AID2133]; format: functional
[11] = molecular target: T3, Kappa-type opioid receptor; format: functional
Mu-type opioid receptor [12] = molecular target: T1, Mu-type opioid receptor; assay: HTS Image-Based Screen for Agonists of the MOR Receptor. [Related pubchem assays (depositor defined):AID1777, AID1785, AID1786, AID2133]; format: functional
[13] = molecular target: T2, Delta-type opioid receptor; assay: HTS Image-Based Screen for Antagonists of the DOR Receptor. [Related pubchem assays (depositor defined):AID1777, AID1785, AID1786, AID2133]; format: functional
[14] = molecular target: T3, Kappa-type opioid receptor; format: functional; remark: listed apart in the source
[15] = molecular target: T3, Kappa-type opioid receptor; assay: SAR analysis of small molecule antagonists of the kappa opioid receptor via a luminescent beta-arrestin assay - Set 5. [Related pubchem assays (depositor defined):AID1778, AID1785]; format: functional
[16] = molecular target: T3, Kappa-type opioid receptor; assay: SAR analysis of small molecule antagonists of the kappa opioid receptor via a luminescent beta-arrestin assay - Set 4. [Related pubchem assays (depositor defined):AID1777, AID1778, AID1785, AID1786, AID1966, AID2133, AID2136, AID2285]; format: functional
[17] = molecular target: T5, Tyrosine-protein phosphatase non-receptor type 22 (Homo sapiens, UniProt Q9Y2R2); assay: PubChem AID 2140
T5 sequence (Q9Y2R2 whole entry): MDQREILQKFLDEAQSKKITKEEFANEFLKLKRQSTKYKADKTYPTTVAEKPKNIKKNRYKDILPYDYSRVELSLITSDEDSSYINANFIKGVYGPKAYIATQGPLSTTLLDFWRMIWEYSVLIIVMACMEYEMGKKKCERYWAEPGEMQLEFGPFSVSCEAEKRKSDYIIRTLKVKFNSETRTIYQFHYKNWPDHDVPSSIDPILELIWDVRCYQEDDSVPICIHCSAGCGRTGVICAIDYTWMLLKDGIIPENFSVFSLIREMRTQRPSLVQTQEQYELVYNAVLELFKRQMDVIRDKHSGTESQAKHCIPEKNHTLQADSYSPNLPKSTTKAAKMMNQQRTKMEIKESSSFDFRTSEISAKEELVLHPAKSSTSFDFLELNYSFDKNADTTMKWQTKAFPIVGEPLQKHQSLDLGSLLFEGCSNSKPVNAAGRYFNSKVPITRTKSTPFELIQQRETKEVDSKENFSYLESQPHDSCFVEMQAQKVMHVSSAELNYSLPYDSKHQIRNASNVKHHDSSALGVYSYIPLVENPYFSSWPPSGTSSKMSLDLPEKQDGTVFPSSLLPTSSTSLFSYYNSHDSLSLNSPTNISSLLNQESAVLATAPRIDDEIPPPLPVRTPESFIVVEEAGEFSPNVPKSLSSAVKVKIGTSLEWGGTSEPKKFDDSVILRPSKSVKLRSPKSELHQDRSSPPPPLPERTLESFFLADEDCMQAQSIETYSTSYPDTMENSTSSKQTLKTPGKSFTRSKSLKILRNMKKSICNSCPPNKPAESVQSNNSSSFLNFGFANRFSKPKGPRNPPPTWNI

[18] = molecular target: T5, Tyrosine-protein phosphatase non-receptor type 22; assay: inhibition of lymphoid tyrosine phosphatase LYP – biochemical, pCAP fluorogenic substrate, fluorescence, set 3, SAR follow-up (AID 449727); format: functional
[19] = molecular target: Tyrosine-protein phosphatase non-receptor type 12 (Homo sapiens, UniProt Q05209); assay: SAR Selectivity Analysis of small molecule inhibitors of PEST using pCAP in a fluorescence assay. [Related pubchem assays (depositor defined):AID1779, AID1784, AID2135]; format: functional
[20] = molecular target: T6, Tyrosine-protein phosphatase non-receptor type 7 (Homo sapiens, UniProt P35236); assay: inhibition of hematopoietic tyrosine phosphatase HePTP – biochemical, set 2, SAR follow-up (AID 449736); format: functional
T6 sequence (P35236 whole entry): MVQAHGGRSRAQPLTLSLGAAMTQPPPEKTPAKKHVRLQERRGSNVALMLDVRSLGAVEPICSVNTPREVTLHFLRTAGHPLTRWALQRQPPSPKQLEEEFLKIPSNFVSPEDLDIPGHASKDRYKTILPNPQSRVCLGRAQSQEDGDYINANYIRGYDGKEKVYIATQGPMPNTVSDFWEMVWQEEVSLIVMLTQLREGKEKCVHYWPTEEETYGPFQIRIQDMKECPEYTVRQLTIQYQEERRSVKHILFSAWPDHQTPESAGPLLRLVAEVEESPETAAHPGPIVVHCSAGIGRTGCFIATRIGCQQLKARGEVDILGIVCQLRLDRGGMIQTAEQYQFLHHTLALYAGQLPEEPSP

[21] = molecular target: T5, Tyrosine-protein phosphatase non-receptor type 22; assay: PubChem AID 2135
[22] = molecular target: T5, Tyrosine-protein phosphatase non-receptor type 22; assay: SAR LYP1 Fluorescent Assay using OMFP substrate for In Vitro dose response studies - Set 3. [Related pubchem assays (depositor defined):AID1779, AID1784, AID2140, AID2686]; format: functional
[23] = molecular target: T5, Tyrosine-protein phosphatase non-receptor type 22; assay: SAR LYP1 Fluorescent Assay using OMFP substrate for In Vitro dose response studies - Set 2. [Related pubchem assays (depositor defined):AID1779, AID1784, AID2140, AID449726, AID488869]; format: functional
[24] = molecular target: T5, Tyrosine-protein phosphatase non-receptor type 22; assay: SAR LYP1 Fluorescent Assay using pCAP substrate for In Vitro dose response studies - Set 2. [Related pubchem assays (depositor defined):AID1779, AID1784, AID2135, AID449727]; format: functional
Cannabinoid receptor 1 [25] = molecular target: T7, Cannabinoid receptor 1 (Homo sapiens, UniProt P21554); assay: SAR analysis of agonists of the Cannabinoid Receptor 1 using an Image-Based Assay - Set 4. [Related pubchem assays (depositor defined):AID2013, AID2026]; format: functional
[26] = molecular target: G-protein coupled receptor 55 (Homo sapiens, UniProt Q9Y2T6); assay: SAR Analysis of Selective Antagonists of GPR55 using an Image-Based Assay - Set 4. [Related pubchem assays (depositor defined):AID2013, AID2026]; format: functional;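 note: antagonism of response to 5 µM lysophosphatidylinositol agonist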
[27] = molecular target: T8, G-protein coupled receptor 35 (Homo sapiens, UniProt Q9HC97); assay: SAR analysis of Antagonists of the GPR35 Receptor using an Image-Based Assay - Set 6. [Related pubchem assays (depositor defined):AID2013, AID2026]; format: functional
[28] = molecular target: T8, G-protein coupled receptor 35; assay: SAR analysis of Agonists of the GPR35 Receptor using an Image-Based Assay - Set 4. [Related pubchem assays (depositor defined):AID2013, AID2026]; format: functional
Cannabinoid receptor 1 [29] = molecular target: T7, Cannabinoid receptor 1; assay: SAR analysis of antagonists of the Cannabinoid Receptor 1 using an Image-Based Assay - Set 4. [Related pubchem assays (depositor defined):AID2013, AID2026]; format: functional
Cannabinoid receptor 2 [30] = molecular target: T9, Cannabinoid receptor 2 (Homo sapiens, UniProt P34972); assay: SAR analysis of antagonists of the Cannabinoid Receptor 2 using an Image-Based Assay - Set 3. [Related pubchem assays (depositor defined):AID2013, AID2026]; format: functional
Cannabinoid receptor 2 [31] = molecular target: T9, Cannabinoid receptor 2; assay: SAR analysis of agonists of the Cannabinoid Receptor 2 using an Image-Based Assay - Set 3. [Related pubchem assays (depositor defined):AID2013, AID2026]; format: functional

T1 sequence (P35372 whole entry): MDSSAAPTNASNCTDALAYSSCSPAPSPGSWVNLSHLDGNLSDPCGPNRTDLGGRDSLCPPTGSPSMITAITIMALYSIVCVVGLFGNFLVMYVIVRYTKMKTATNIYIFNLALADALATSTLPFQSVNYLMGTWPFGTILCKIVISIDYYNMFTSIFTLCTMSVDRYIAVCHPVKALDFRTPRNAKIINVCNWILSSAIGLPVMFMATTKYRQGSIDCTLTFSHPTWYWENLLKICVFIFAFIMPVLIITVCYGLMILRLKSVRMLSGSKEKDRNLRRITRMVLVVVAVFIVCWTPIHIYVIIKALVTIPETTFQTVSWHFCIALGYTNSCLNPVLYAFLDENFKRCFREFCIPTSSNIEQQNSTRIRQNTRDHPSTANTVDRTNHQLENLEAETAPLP
T2 sequence (P41143 whole entry): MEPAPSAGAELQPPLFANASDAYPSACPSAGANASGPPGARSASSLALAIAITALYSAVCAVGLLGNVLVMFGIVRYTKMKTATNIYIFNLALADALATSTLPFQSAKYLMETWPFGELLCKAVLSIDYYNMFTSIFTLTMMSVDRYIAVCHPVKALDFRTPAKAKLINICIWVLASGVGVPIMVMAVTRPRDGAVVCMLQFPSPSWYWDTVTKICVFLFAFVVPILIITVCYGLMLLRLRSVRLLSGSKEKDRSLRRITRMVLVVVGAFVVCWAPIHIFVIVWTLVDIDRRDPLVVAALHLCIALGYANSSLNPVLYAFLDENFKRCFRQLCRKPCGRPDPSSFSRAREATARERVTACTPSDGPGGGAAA
T3 sequence (P41145 whole entry): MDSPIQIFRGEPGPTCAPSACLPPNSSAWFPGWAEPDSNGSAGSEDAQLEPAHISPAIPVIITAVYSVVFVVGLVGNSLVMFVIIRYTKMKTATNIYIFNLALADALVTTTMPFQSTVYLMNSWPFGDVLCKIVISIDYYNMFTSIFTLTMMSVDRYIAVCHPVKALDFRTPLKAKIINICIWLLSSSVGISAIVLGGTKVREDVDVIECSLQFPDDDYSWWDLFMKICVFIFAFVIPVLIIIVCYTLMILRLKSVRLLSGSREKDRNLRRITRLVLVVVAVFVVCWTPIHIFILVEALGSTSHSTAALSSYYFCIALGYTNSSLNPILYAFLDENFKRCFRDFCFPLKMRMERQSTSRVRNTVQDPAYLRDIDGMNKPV
T7 sequence (P21554 whole entry): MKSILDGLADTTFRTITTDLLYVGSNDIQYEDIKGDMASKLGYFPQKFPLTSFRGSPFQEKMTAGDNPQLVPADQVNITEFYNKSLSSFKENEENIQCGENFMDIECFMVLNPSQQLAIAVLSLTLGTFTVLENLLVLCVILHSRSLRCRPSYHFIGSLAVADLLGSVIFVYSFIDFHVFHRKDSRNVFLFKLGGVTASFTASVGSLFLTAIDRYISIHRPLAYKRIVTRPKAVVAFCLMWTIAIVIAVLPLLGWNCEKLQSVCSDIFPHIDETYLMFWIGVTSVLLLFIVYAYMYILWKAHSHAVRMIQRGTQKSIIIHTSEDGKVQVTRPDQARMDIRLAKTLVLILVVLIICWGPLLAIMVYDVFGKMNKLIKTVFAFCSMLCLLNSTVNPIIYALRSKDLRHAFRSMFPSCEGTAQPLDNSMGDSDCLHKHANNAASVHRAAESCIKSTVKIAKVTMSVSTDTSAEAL
T9 sequence (P34972 whole entry): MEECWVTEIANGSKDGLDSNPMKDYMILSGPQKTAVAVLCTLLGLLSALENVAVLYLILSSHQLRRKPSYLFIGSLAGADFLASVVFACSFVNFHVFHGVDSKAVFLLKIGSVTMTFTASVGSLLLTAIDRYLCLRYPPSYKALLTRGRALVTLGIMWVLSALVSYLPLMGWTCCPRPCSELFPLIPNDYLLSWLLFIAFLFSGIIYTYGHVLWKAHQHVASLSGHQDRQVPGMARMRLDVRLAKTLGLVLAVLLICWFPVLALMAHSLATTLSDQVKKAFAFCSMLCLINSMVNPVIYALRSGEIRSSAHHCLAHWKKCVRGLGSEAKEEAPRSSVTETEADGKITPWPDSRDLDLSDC
T8 sequence (Q9HC97 whole entry): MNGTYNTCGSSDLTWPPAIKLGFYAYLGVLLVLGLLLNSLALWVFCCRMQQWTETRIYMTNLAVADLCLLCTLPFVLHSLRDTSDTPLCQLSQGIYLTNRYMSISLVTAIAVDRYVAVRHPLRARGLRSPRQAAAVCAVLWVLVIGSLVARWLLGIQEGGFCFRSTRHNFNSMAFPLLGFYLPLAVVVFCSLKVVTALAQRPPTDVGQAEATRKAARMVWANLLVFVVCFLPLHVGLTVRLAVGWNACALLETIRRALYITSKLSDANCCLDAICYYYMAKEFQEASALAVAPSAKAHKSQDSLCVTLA
Chain of Tyrosine-protein phosphatase non-receptor type 12 (Q05209 whole entry): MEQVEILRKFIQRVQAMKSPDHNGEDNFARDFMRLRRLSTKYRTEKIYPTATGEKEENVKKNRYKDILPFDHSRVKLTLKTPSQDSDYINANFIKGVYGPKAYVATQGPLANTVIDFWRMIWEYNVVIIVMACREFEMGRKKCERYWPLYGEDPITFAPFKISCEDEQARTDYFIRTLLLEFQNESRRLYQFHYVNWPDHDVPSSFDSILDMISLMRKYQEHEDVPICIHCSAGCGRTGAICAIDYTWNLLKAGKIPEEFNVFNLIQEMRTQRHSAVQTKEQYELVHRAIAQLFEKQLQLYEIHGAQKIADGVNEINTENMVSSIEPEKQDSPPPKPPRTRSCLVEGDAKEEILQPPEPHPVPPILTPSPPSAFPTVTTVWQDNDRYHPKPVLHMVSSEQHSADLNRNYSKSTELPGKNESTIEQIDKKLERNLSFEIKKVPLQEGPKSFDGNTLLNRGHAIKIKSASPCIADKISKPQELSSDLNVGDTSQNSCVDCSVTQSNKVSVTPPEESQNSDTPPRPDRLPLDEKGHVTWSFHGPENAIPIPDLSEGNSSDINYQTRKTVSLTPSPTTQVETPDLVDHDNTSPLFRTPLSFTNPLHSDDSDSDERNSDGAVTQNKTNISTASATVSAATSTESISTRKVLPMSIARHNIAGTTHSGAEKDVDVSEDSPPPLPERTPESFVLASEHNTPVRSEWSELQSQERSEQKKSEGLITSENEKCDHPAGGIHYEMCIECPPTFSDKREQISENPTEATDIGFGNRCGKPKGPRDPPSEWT
Chain of G-protein coupled receptor 55 (Q9Y2T6 whole entry): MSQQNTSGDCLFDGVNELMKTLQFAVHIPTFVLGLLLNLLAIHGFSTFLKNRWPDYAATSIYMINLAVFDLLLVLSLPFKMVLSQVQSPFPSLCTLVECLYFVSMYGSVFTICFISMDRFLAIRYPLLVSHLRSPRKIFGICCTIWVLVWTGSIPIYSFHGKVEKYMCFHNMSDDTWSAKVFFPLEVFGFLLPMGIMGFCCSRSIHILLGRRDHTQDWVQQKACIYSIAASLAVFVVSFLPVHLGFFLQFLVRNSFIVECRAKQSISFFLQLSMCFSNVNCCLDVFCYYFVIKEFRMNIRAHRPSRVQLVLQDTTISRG
Chain of Melanin-concentrating hormone receptor 1 (Q99705 whole entry): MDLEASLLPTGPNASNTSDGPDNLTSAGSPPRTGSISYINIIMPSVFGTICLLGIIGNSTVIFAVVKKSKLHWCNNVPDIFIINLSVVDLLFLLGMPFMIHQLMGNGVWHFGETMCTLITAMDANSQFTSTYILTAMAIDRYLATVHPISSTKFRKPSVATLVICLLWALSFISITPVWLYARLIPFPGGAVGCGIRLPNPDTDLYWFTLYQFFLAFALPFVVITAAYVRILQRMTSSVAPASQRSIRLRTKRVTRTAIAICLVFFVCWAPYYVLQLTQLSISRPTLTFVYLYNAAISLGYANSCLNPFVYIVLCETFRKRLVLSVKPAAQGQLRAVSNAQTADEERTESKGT

## O=C(c1cnccn1)N(Cc1ccco1)C1(C(=O)NC2CCCC2)CCCCC1
Mu-type opioid receptor [1]
  EC50: > 32 µM (inactive)
[2]
  IC50: > 32 µM (inactive)
[3]
  EC50: > 10 µM (inactive)
Mu-type opioid receptor [4]
  IC50: > 32 µM (inactive)
[5]
  IC50: > 32 µM (inactive)
[6]
  EC50: > 32 µM (inactive)
[7]
  IC50: > 43.8 µM (not active)
[8]
  IC50: > 43.8 µM (not active)
[9]
  EC50: > 32 µM (inactive)

## O=C(c1ccc([N+](=O)[O-])cc1)N(Cc1ccc(Br)cc1)N1C(=O)CCCC1=O
[10]
  EC50: > 32 µM (inactive)
[11]
  EC50: > 35 µM
Mu-type opioid receptor [12]
  EC50: > 32 µM (inactive)
[13]
  IC50: > 32 µM (inactive)
[14]
  EC50: 3.55 µM

## Cc1ccccc1S(=O)(=O)NCc1ccc(C(=O)NCCN(Cc2ccccc2)C(C)C)cc1
[15]
  IC50: 2.34 µM (active)
[16]
  IC50: 2.49 µM (active)

## N#C/C(=C/c1ccc(OCc2ccc(C(=O)O)cc2)cc1)c1cccc(F)c1
[17]
  IC50: > 100 µM (inactive)
[18]
  IC50: > 100 µM (inactive)
[19]
  IC50: 21 µM (active)
[20]
  IC50: 3.65 µM (active)
[21]
  IC50: > 100 µM (inactive)
[22]
  IC50: 82.9 µM (active)
[23]
  IC50: 65.5 µM (active)
[24]
  IC50: 86.7 µM (active)

## CCNC(=O)c1cc2c(=O)n3ccccc3nc2n(C2CCCC2)c1=N
Cannabinoid receptor 1 [25]
  EC50: > 32 µM (inactive)
[26]
  IC50: 29.7 µM (inactive)
[27]
  IC50: > 32 µM (inactive)
[28]
  EC50: > 32 µM (inactive)
Cannabinoid receptor 1 [29]
  IC50: > 32 µM (inactive)
Cannabinoid receptor 2 [30]
  IC50: > 32 µM (inactive)
Cannabinoid receptor 2 [31]
  EC50: 3.01 µM (active)
